Read-outs that look alike come from different tables or passages of the source.
System: TGFβ signal
Experiment: TGFβ signal inhibitory activity, (SBE)4-Luc reporter in A549 cells (Test Examples 1A and 1B)
Type: cell-based, human
Conditions: Homo sapiens, A549, read-out: TGFβ inhibition rate, %; for inhibition at 1 µM: test compound 1 µM
Experimental: Test Example 1A: TGFβ signal inhibitory activity (in vitro test) The compounds according to the present invention was evaluated for TGFβ signal inhibitory activity according to the method described in J. Boil .Chem., 273, 21145-21152 (1998). Specifically, a plasmid having four tandem binding sequences of Smad3, a TGF-beta signal transducer, to the upstream of a luciferases gene were used as a reporter plasmid ((SBE)4-Luc) to detect TGF-beta signal, This reporter gene was introduced into human pulmonary carcinoma epithelial cells (A549) (available from ATCC) to establish a stable cell line. A test compound and TGFβ-1 (2 ng/ ml) were added to the cells, and the mixture was cultured for 4 hr. In this case, the compounds according to the present invention synthesized in the Examples were used as the test compound. After the culture, the luciferase activity of the cells were measured by chemiluminescence (Steady Glo (trademark) luciferase assay system, available from Promega). Likewise, the luciferase activity was measured as a control against the culture of cells with the addition of TGFβ only and the culture of cells without the addition of both TGFβ and the test compound.
The TGFβ inhibition (%) was calculated by the following equation, based on the measurement results. TGFβ inhibition(%) = (A-B)/(A-C) × 100 [formula] wherein • A: luciferase activity with the addition of TGFβ1 and without the addition of test compound (relative luciferase unit), • B: luciferase activity with the addition of both TGFβ1 and test compound (relative luciferase unit), and • C: luciferase activity without the addition of both TGFβ1 and test compound (relative luciferase unit).
The test was carried out for each of test compound at the concentrations of 3 µM and 10 µM. For certain test compounds, the test was further carried out for test compound at the concentration of 1 µM.
For the compounds of Reference Examples, the TGFβ signal inhibitory activity was evaluated in the same manner as in Test Example 1A.

[1] = test compound 3 µM, TGFβ-1 2 ng/ml, 4 hr, Table 1A
[2] = test compound 10 µM, TGFβ-1 2 ng/ml, 4 hr, Table 1A
[3] = test compound 3 µM, Reference Examples, Table 1B
[4] = test compound 10 µM, Reference Examples, Table 1B
[5] = 3 µM, compounds of Reference Examples (Test Example 1B)
[6] = 10 µM, compounds of Reference Examples (Test Example 1B)

Row | SMILES | inhibition at 3 µM [1] [%] | inhibition at 3 µM [5] [%] | inhibition at 10 µM [6] [%] | also measured
1 | Cc1cc(Oc2ccnc3ccccc23)c(-c2ccccn2)nc1C [Compound 1, 5,6-Dimethyl-3-(quinolin-4-yloxy)-[2,2']bipyridine] | 100 | – | – | inhibition at 10 µM [2]: 100%
2 | COc1cc2nccc(Oc3ccccc3Cc3ccccc3)c2cc1OC [Compound r1, 4-(2-Benzylphenoxy)-6,7-dimethoxyquinoline] | – | – | – | inhibition at 3 µM [3]: 5%; inhibition at 10 µM [4]: 53%
3 | COc1cc2ncnc(Oc3cc(C)c(C)nc3-c3ccccn3)c2cc1OC [Compound 27, 4-(5,6-Dimethyl-[2,2']bipyridin-3-yloxy)-6,7-dimethoxy-quinazoline] | 100 | – | – | inhibition at 1 µM (TGFβ-1 2 ng/ml, 4 hr, Table 1A): 89%
4 | COc1cc2nccc(Oc3cc4ccccc4nc3-c3ccccn3)c2cc1OC [r287] | – | 100 | 100 | –
5 | Brc1ccc2ncnc(Oc3cc4cccnc4nc3-c3ccccc3)c2c1 [Compound 69, 6-Bromo-4-(2-phenyl-[1,8]naphthyridin-3-yloxy)-quinazoline] | 52 | – | – | inhibition at 10 µM [2]: 94%
6 | Cc1ccc(Oc2ccnc3ccc(OCCCN4CCN(CCO)CC4)cc23)c(-c2ncccn2)n1 [Compound 221, 2-(4-{3-[4-(6-Methyl-2-pyrimidin-2-yl-pyridin-3-yloxy)-quinolin-6-yloxy]-propyl}-piperazin-1-yl)-ethano I] | 39 | – | – | inhibition at 10 µM [2]: 79%
7 | COc1cc2nccc(Oc3cc4ccccc4cc3O)c2cc1OC [r425] | – | 72 | 100 | –
8 | COc1cc2nccc(Oc3cc(C)c(SC)cc3C(C)=O)c2cc1OC [Compound r186] | – | 76 | 100 | –
9 | COc1cc2nccc(Oc3cc(C)c(C)cc3-c3cccnc3)c2cc1OC [r170] | – | 76 | 100 | –
10 | Cc1cc(Oc2ncnc3ccc(Br)cc23)c(-c2ccccn2)nc1C [Compound 25, 6-Bromo-4-(5,6-dimethyl-[2,2']bipyridin-3-yloxy)-quinazoline] | 89 | – | – | inhibition at 10 µM [2]: 99%
11 | COc1cc2c(Oc3ccc(C)cc3C(=O)c3ccccc3)ccnc2cc1OCCCCN1CCN(C)CC1 [Compound r148] | – | – | – | inhibition at 3 µM [3]: 99%; inhibition at 10 µM [4]: 100%
12 | CCOC(=O)c1cc(I)ccc1Oc1ccnc2cc(OC)c(OC)cc12 [Compound r86] | – | – | – | inhibition at 3 µM [3]: 68%; inhibition at 10 µM [4]: 99%
13 | COc1cc2nccc(Oc3ccc(C)nc3-c3cccc(F)c3)c2cc1OC [Compound r240] | – | 100 | 100 | –
14 | COc1cc2nccc(Oc3cc4ccncc4cc3Br)c2cc1OC [Compound r301, 4-(7-Bromo-isoquinolin-6-yloxy)-6,7-dimethoxy-quinoline] | – | 20 | 75 | –
15 | COc1cc2nccc(Oc3cc4cccnc4nc3C(C)(C)C)c2cc1OC [r426] | – | 100 | – | –
16 | COc1cc2c(Oc3cc4cccnc4nc3C)ccnc2cc1OCCN1CCC(O)CC1 [Compound r451] | – | 99 | 100 | –
17 | COc1cc2nccc(Oc3ccc(C)cc3C(=O)c3ccc(OCCN4CCCCC4)cc3)c2cc1OC [Compound r190] | – | 30 | 86 | –
18 | COc1cc2nccc(Oc3cc4c(cc3C(C)=O)CCC4)c2cc1OC [r182] | – | 57 | 96 | –
19 | Cc1cc(Oc2ccnc3ccc(-c4ccccn4)cc23)c(-c2ccccn2)nc1C [Compound 174, 5,6-Dimethyl-3-(6-pyridin-2-yl-quinolin-4-yloxy)-[2,2']bipyridine] | 89 | – | – | inhibition at 10 µM [2]: 100%
20 | COc1cc2c(Oc3cc4cccnc4nc3C)ccnc2cc1OCC1CO1 (centres unmarked) [Compound r401] | – | 24 | 76 | –
21 | CCCOC(=O)c1cc2ccccc2cc1Oc1ccnc2cc(OCCn3ccnc3)c(OC)cc12 [Compound r324] | – | 86 | 100 | –
22 | Fc1cc2nccc(Oc3cc4cccnc4nc3-c3ccccc3)c2cc1F [Compound 101] | 54 | – | – | inhibition at 10 µM [2]: 98%

Row | SMILES | inhibition at 3 µM [1] [%] | inhibition at 3 µM [5] [%] | inhibition at 10 µM [6] [%] | also measured
23 | COc1cc2nccc(Oc3ccc4ncsc4c3-c3ccccc3)c2cc1OC [Compound r295] | – | 47 | 96 | –
24 | COc1cc2c(Oc3cc4ccccc4nc3C)ccnc2cc1OCCN1C(=O)c2ccccc2C1=O [Compound r367] | – | 95 | 98 | –
25 | COc1cc2nccc(Oc3cc(C)c(C)nc3-c3ccccn3)c2cc1NCCO [Compound 154, 2-[4-(5,6-Dimethyl-[2,2']bipyridinyl-3-yloxy)-7-methoxy-quinolin-6-ylamino]-ethanol] | 99 | – | – | inhibition at 10 µM [2]: 100%
26 | COc1cc2c(Oc3cc4ccccc4nc3C)ccnc2cc1OCCCN1CCCCC1 [Compound r378] | – | 100 | 100 | –
27 | COC(=O)c1cc2ccccc2cc1Oc1ccnc2cc(OC)c(OC)cc12 [Compound r79, Methyl 3-[(6,7-Dimethoxy-4-quinolyl)oxy]naphthalene-2-carboxylate] | – | – | – | inhibition at 3 µM [3]: 97%; inhibition at 10 µM [4]: 100%
28 | COc1cc2c(Oc3cc4ccccc4nc3C)ccnc2cc1OCC(N)=O [Compound r370] | – | 85 | 99 | –
29 | CCCOC(=O)c1cc2ccccc2cc1Oc1ccnc2cc(OCCCn3ccnc3)c(OC)cc12 [Compound r327] | – | 89 | 100 | –
30 | COc1cc2nccc(Oc3ccc(C)nc3-c3ccc(O)cc3)c2cc1OC [Compound r248] | – | 99 | 100 | –
31 | C=CCON=C(C)c1cc(C)c(C)cc1Oc1ccnc2cc(OC)c(OC)cc12 [Compound r197] | – | 40 | 88 | –
32 | COc1cc2nccc(Oc3ccc(C)nc3-c3cccc(C(C)=O)c3)c2cc1OC [Compound r232] | – | 66 | 79 | –
33 | Cc1cc(Oc2ccnc3ccc(-c4ccc[nH]4)cc23)c(-c2ccccn2)nc1C [Compound 168, 5,6-Dimethyl-3-[6-(1H-pyrrol-2-yl)-quinolin-4-yloxy]-[2,2']bipyridine] | 92 | – | – | inhibition at 10 µM [2]: 100%
34 | COC(=O)c1ccc2c(Oc3cc4cccnc4nc3-c3ccccc3)ccnc2c1 [Compound 113, Methyl 4-(2-Phenyl-[1,8]naphthyridin-3-yloxy)-quinoline-7-carboxarlate] | 95 | – | – | inhibition at 10 µM [2]: 100%
35 | Cc1cc(Oc2ccnc3cc(OCc4ccccc4)ccc23)c(-c2ccccn2)nc1C [Compound 137, 3-(7-Benzyloxy-quinolin-4-yloxy)-5,6-dimethyl-[2,2']bipyridine] | 88 | – | – | inhibition at 10 µM [2]: 100%
36 | COc1ccc2nccc(Oc3cc(C)c(C)nc3-c3ccccn3)c2c1 [Compound 4, 3-(6-Methoxy-quinolin-4-yloxy)-5,6-dimethyl-[2,2']bipyridine] | 100 | – | – | inhibition at 1 µM (TGFβ-1 2 ng/ml, 4 hr, Table 1A): 94%
37 | COc1cc2nccc(Oc3cc(C)c(C)nc3-c3ncccc3C)c2cc1OC [r429] | – | 52 | 94 | –
38 | Clc1cc2nccc(Oc3cc4cccnc4nc3-c3ccccc3)c2cc1Cl [Compound 58, 3-(6,7-Dichloro-quinolin-4-yloxy).2-phenyl-[1,8]naphthyridine] | 83 | – | – | inhibition at 10 µM [2]: 100%
39 | C=C(C)C(=O)Oc1ccc(C(=O)c2ccccc2)c(Oc2ccnc3cc(OC)c(OC)cc23)c1 [Compound r67] | – | – | – | inhibition at 3 µM [3]: 4%; inhibition at 10 µM [4]: 93%
40 | COc1cc2nccc(Oc3cccc4ccccc34)c2cc1OC [Compound r16] | – | – | – | inhibition at 3 µM [3]: 0%; inhibition at 10 µM [4]: 62%
41 | Fc1cc2nccc(Oc3cc4cccnc4nc3-c3ccccc3)c2c(F)c1F [Compound 102, 2-Phenyl-3-(5,6,7-trifluoro-quinolin-4-yloxy)-[1,8]naphthyridine] | 45 | – | – | inhibition at 10 µM [2]: 92%
42 | Cc1cc(Oc2ccnc3ccc(C(F)(F)F)cc23)c(-c2ccccn2)nc1C [Compound 3, 5,6-Dimethyl-3-(6-trifluoromethyl-quinolin-4-yloxy)-[2,2']bipyridine] | 99 | – | – | inhibition at 1 µM (TGFβ-1 2 ng/ml, 4 hr, Table 1A): 79%
43 | COc1cc2c(Oc3cc4cccnc4nc3-c3ccccc3)ccnc2cc1C [Compound 62, 3-(6-Methoxy-7-methyl-quinolin-4-yloxy)-2-phenyl-[1,8]naphthyridine] | 99 | – | – | inhibition at 10 µM [2]: 100%
44 | COc1cc2c(Oc3cc4ccccc4nc3C(C)=O)ccnc2cc1OCCN1CCCCC1 [Compound r467] | – | 100 | – | –
